Assay results as given in BindingDB's records for doi:10.1016/0960-894X(96)00211-9 (1996).
Where a name gives a salt, the structure may show the parent alone.

Tests used:
[1] = Inhibition of Endothelin-converting enzyme of guinea pig lung membrane
[2] = Compound was tested for inhibitory activity against Endothelin-converting enzyme isolated from guinea pig lung membrane.

Row | Compound | IC50 [1] [nM] | IC50 [2] [nM]
1 | CC(C)CC(CP(O)(O)=C(Cc1ccccc1)NC(=O)[C@H](CC(C)C)NC(=O)OCc1ccccc1)C(=O)N[C@@H](Cc1c[nH]c2ccccc12)C(=O)O (stereo partly drawn) [(S)-2-(2-{[1-((S)-2-Benzyloxycarbonylamino-4-methyl-pentanoylamino)-2-phenyl-ethyl]-hydroxy-phosphinoylmethyl}-4-methyl-pentanoylamino)-3-(1H-indol-3-yl)-propionic acid; Disodium salt] | 160 | 
2 | CC(C)CC(CP(O)(O)=C(Cc1ccc2ccccc2c1)NC(=O)[C@H](CCCCN)NS(C)(=O)=O)C(=O)N[C@@H](Cc1c[nH]c2ccccc12)C(=O)O (stereo partly drawn) [(S)-2-(2-{[1-((S)-6-Amino-2-methanesulfonylamino-hexanoylamino)-2-naphthalen-2-yl-ethyl]-hydroxy-phosphinoylmethyl}-4-methyl-pentanoylamino)-3-(1H-indol-3-yl)-propionic acid; Disodium salt] | 65 | 
3 | CC(C)CC(CP(O)(O)=C(Cc1ccc2ccccc2c1)NC(=O)OCc1ccccc1)C(=O)N[C@@H](Cc1c[nH]c2ccccc12)C(=O)O (stereo partly drawn) [(S)-2-{2-[(1-Benzyloxycarbonylamino-2-naphthalen-2-yl-ethyl)-hydroxy-phosphinoylmethyl]-4-methyl-pentanoylamino}-3-(1H-indol-3-yl)-propionic acid; Disodium salt] |  | 3300

Second part, the compound after the results:

Row | IC50 [1] [nM] | IC50 [2] [nM] | Compound
4 | 800 |  | CC(C)C(CP(O)(O)=C(Cc1ccc2ccccc2c1)NC(=O)[C@H](CCCCNC(=O)OCc1ccccc1)NS(C)(=O)=O)C(=O)N[C@@H](Cc1c[nH]c2ccccc12)C(=O)O (stereo partly drawn) [(S)-2-(2-{[1-((S)-6-Benzyloxycarbonylamino-2-methanesulfonylamino-hexanoylamino)-2-naphthalen-2-yl-ethyl]-hydroxy-phosphinoylmethyl}-3-methyl-butyrylamino)-3-(1H-indol-3-yl)-propionic acid; Disodium salt]
5 | 390 |  | CC(C)C(CP(O)(O)=C(Cc1ccccc1)NC(=O)[C@H](CCCCNC(=O)OCc1ccccc1)NS(C)(=O)=O)C(=O)N[C@@H](Cc1c[nH]c2ccccc12)C(=O)O (stereo partly drawn) [(S)-2-(2-{[1-((S)-6-Benzyloxycarbonylamino-2-methanesulfonylamino-hexanoylamino)-2-phenyl-ethyl]-hydroxy-phosphinoylmethyl}-3-methyl-butyrylamino)-3-(1H-indol-3-yl)-propionic acid; Disodium salt]
6 | 40 |  | CC(C)CC(NC(=O)[C@H](CCCCNC(=O)OCc1ccccc1)NS(C)(=O)=O)=P(O)(O)CC(CC(C)C)C(=O)N[C@@H](Cc1c[nH]c2ccccc12)C(=O)O (stereo partly drawn) [(S)-2-(2-{[1-((S)-6-Benzyloxycarbonylamino-2-methanesulfonylamino-hexanoylamino)-3-methyl-butyl]-hydroxy-phosphinoylmethyl}-4-methyl-pentanoylamino)-3-(1H-indol-3-yl)-propionic acid; Disodium salt]
